What all share (experiment): In vitro MMP inhibition, IC50 determination (fluorogenic substrate I)
Type in all cases: biochemical

The target in one assay is T1, Human recombinant MMP-1 (Homo sapiens, UniProt P03956).
T1 construct: made in house; host or cells: MMP-1-transfected HT-1080 cells (spent media)
T1 sequence (P03956 100-469): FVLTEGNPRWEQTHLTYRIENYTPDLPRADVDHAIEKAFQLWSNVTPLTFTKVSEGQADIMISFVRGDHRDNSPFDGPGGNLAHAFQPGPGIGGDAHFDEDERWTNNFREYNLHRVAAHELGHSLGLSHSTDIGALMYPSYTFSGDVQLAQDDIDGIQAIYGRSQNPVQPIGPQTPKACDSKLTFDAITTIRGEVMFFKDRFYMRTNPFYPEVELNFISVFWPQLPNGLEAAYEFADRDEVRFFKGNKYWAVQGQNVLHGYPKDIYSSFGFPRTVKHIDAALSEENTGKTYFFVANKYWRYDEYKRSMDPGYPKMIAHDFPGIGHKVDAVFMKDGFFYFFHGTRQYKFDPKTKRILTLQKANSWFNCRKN
Put shortly:
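Inhibitor dilutions were made in 100 mM Tris-HCl/100 mM NaCl/10 mM CaCl2 buffer, pH 7.5, and incubated at room temperature with activated proenzyme (from transfected HT-1080 media; APMA or trypsin) and 4 μM quenched methoxycoumarin peptide substrate. Loss of 415 nm fluorescence (328 nm excitation) against concentration gave IC50.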

The target in a further assay is T2, Human recombinant MMP-2 (Homo sapiens, UniProt P08253).
T2 construct: made in house; host or cells: MMP-2-transfected p2AHT2 cells
T2 sequence (P08253 110-660): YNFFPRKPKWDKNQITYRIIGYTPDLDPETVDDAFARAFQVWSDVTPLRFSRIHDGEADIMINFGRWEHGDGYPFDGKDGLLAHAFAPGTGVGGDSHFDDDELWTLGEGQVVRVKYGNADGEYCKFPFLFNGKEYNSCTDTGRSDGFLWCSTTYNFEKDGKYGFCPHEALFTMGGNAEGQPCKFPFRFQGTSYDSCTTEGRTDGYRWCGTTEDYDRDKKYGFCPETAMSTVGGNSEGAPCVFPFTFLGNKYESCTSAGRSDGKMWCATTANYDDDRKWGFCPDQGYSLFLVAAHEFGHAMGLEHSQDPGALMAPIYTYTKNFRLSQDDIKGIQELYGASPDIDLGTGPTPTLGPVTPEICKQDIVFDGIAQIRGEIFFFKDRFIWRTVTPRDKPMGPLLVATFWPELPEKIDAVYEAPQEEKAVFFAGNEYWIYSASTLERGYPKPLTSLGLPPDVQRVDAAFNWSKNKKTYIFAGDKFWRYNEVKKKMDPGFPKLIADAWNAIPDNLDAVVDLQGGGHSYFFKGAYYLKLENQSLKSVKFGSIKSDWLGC
Put shortly: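 IC50 was derived from the concentration-dependent fall in fluorescence (ex 328, em 415 nm) on Gly-Leu cleavage of 4 μM MCA/Dpa-quenched substrate I. Assays ran at room temperature in pH 7.5 Tris/NaCl/CaCl2/Brij buffer with MMP-2 activated by trypsin or APMA; inhibitors were diluted from 1% DMSO stocks.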

Another assay has as its target T3, Human recombinant MMP-9 (Homo sapiens, UniProt P14780).
T3 construct: made in house; host or cells: MMP-9-transfected HT1080 cells (spent media)
Put shortly: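 Reduction in fluorescence (328 nm excitation, 415 nm emission) from cleavage of 4 μM quenched peptide substrate I, measured at room temperature against inhibitor concentration, gave IC50. Enzyme: trypsin- or APMA-activated MMP-9 purified from transfected HT1080 medium; buffer 100 mM Tris, 100 mM NaCl, 10 mM CaCl2, pH 7.5.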

A further assay has as its target T4, Human recombinant MMP-13 (Homo sapiens, UniProt P45452).
T4 construct: made in house; host or cells: baculovirus / insect cells
In outline:
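Fluorescence at 415 nm (excitation 328 nm) reports Gly-Leu cleavage of 4 μM quenched methoxycoumarin peptide substrate I. Human recombinant MMP-13, activated by trypsin or APMA, was incubated at room temperature with varied inhibitor concentrations in pH 7.5 Tris/NaCl/CaCl2 buffer; IC50 derived from reduced fluorescence.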

A further assay deals with T5, Human recombinant MMP-14 (Homo sapiens, UniProt P50281).
T5 construct: The catalytic domain enzyme was expressed in E. coli inclusion bodies, solubilized in urea; made in house
Put shortly:
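IC50 came from reduced fluorescence (ex 328 nm, em 415 nm) as inhibitor concentration rose, with 4 μM substrate I cleaved at Gly-Leu. Room-temperature incubation in pH 7.5 Tris buffer with 10 mM CaCl2; the E. coli-expressed, refolded MMP-14 catalytic domain was activated with trypsin or APMA.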

Where [1] appears, read: value outside parentheses (Ki in parenthesis).

For orientation: IC50 means the concentration that gives 50% inhibition.

T3 sequence (P14780 107-707 limits assumed): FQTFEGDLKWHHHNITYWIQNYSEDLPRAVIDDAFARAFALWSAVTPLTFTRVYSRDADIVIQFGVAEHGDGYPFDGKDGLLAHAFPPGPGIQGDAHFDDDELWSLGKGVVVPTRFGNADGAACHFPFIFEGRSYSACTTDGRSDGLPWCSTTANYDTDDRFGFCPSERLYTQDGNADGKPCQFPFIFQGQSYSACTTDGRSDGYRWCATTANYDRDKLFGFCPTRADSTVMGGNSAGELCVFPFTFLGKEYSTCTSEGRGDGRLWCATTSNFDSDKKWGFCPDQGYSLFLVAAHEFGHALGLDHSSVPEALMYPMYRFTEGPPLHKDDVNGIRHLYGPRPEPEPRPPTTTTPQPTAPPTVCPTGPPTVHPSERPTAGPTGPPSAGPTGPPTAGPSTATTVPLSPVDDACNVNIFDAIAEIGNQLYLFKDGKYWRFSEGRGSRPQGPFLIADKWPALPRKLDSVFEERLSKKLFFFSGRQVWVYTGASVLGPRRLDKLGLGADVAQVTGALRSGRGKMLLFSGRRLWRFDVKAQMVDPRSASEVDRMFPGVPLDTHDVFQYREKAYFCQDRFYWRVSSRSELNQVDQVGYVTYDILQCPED

Take `O=C(NO)C1(S(=O)(=O)c2ccc(OCCCSc3nc4ccccc4s3)cc2)CCOCC1` [Example 288]: the 50% inhibitory concentration (IC50) is greater than 10000 nM on Human recombinant MMP-1 (value outside parenthesis); 2.3 nM at Human recombinant MMP-2 (value outside parenthesis); 10.6 nM at Human recombinant MMP-9 (value outside parenthesis); 0.8 nM on Human recombinant MMP-13 (value outside parenthesis); greater than 10000 nM at Human recombinant MMP-14 (value outside parenthesis).
As for `CN(CCCOc1ccc(S(=O)(=O)C2(C(=O)NO)CCOCC2)cc1)C(=O)c1ccc2ccccc2c1` [Example 289], the IC50 on Human recombinant MMP-1 (value outside parenthesis) was greater than 10000 nM; on Human recombinant MMP-2 (value outside parenthesis), 2720 nM; on Human recombinant MMP-9 (value outside parenthesis), greater than 10000 nM; at Human recombinant MMP-13 (value outside parenthesis) it was 10.1 nM; at Human recombinant MMP-14 (value outside parenthesis), greater than 10000 nM.
With `CN(CCc1ccccc1)S(=O)(=O)CCCOc1ccc(S(=O)(=O)C2(C(=O)NO)CCOCC2)cc1` [Example 292], the IC50 is 970 nM at Human recombinant MMP-1 (setting [1]); 14.4 nM at Human recombinant MMP-2 (setting [1]); 163 nM on Human recombinant MMP-9 (setting [1]); 2.4 nM at Human recombinant MMP-13 (setting [1]); greater than 10000 nM on Human recombinant MMP-14 (setting [1]).
The corresponding values for `O=C(NO)C1(S(=O)(=O)c2ccc(OCCCS(=O)(=O)C3CCCCC3)cc2)CCOCC1` [Example 293] are 6150 nM, 2.3 nM, 448 nM, 2.6 nM and greater than 10000 nM.
The like results for `Cc1cc(-c2nnc(CCCOc3ccc(S(=O)(=O)C4(C(=O)NO)CCOCC4)cc3)o2)ccc1OC(C)C` [Example 294] were, in that order, 4620 nM, 100 nM, 448 nM, 4.3 nM and greater than 10000 nM.
For the molecule `CCCC(=O)C(C)CCOc1ccc(S(=O)(=O)C2(C(=O)NO)CCOCC2)cc1` (stereo not shown) [Example 295], the concentration for half-maximal inhibition (IC50) at Human recombinant MMP-1 (setting [1]) is greater than 10000 nM; at Human recombinant MMP-2 (setting [1]), 15.6 nM; on Human recombinant MMP-9 (setting [1]) it was 172 nM; at Human recombinant MMP-13 (setting [1]), 2.6 nM; on Human recombinant MMP-14 (setting [1]) it was greater than 10000 nM.
As for `O=C(CCCOc1ccc(S(=O)(=O)C2(C(=O)NO)CCOCC2)cc1)c1cccs1` [Example 297], the concentration for half-maximal inhibition (IC50) at Human recombinant MMP-1 (setting [1]) was 6810 nM; at Human recombinant MMP-2 (setting [1]), 8.1 nM; on Human recombinant MMP-9 (setting [1]) it was 64.6 nM; on Human recombinant MMP-13 (setting [1]) it was 0.5 nM; at Human recombinant MMP-14 (setting [1]) it was 6560 nM.
The corresponding values for `COc1ccc(CC(=O)CCCOc2ccc(S(=O)(=O)C3(C(=O)NO)CCOCC3)cc2)cc1` [Example 301] are 3660 nM, 0.2 nM, 9.1 nM, less than 0.1 nM and 320 nM.
The corresponding values for `O=C(CCCOc1ccc(S(=O)(=O)C2(C(=O)NO)CCOCC2)cc1)Cc1ccc(Cl)cc1` [Example 302] are 2730 nM, 0.2 nM, 2.9 nM, 0.1 nM and 94.9 nM.
The corresponding values for `COc1ccc(C(=O)C(C)CCOc2ccc(S(=O)(=O)C3(C(=O)NO)CCOCC3)cc2)cc1` (stereo not shown) [Example 306] are greater than 10000 nM, 92.9 nM, 185 nM, 1.7 nM and greater than 10000 nM.
`N#Cc1ccc(N2CCN(CCCOc3ccc(S(=O)(=O)C4(C(=O)NO)CCOCC4)cc3)C2=O)cc1` [Example 307]: the half-maximal inhibitory concentration (IC50) was 8130 nM on Human recombinant MMP-1 (setting [1]); 135 nM on Human recombinant MMP-2 (setting [1]); 139 nM at Human recombinant MMP-9 (setting [1]); 4.5 nM on Human recombinant MMP-13 (setting [1]); greater than 10000 nM at Human recombinant MMP-14 (setting [1]).
With `C[C@@H]1[C@H](c2ccccc2)OC(=O)N1CCCOc1ccc(S(=O)(=O)C2(C(=O)NO)CCOCC2)cc1` [Example 308], the half-inhibitory concentration (IC50) at Human recombinant MMP-1 (setting [1]) was greater than 10000 nM; at Human recombinant MMP-2 (setting [1]), 176 nM; on Human recombinant MMP-9 (setting [1]), 1600 nM; on Human recombinant MMP-13 (setting [1]) it was 3.7 nM; at Human recombinant MMP-14 (setting [1]), greater than 10000 nM.
With `C[C@H]1[C@@H](c2ccccc2)OC(=O)N1CCCOc1ccc(S(=O)(=O)C2(C(=O)NO)CCOCC2)cc1` [Example 309], the IC50 at Human recombinant MMP-1 (setting [1]) is greater than 10000 nM; on Human recombinant MMP-2 (setting [1]), 135 nM; on Human recombinant MMP-9 (setting [1]), 1560 nM; at Human recombinant MMP-13 (setting [1]), 1.8 nM; on Human recombinant MMP-14 (setting [1]), greater than 10000 nM.
For the molecule `CC(C)(C)C1CCN(S(=O)(=O)CCCOc2ccc(S(=O)(=O)C3(C(=O)NO)CCOCC3)cc2)CC1` [Example 310], the IC50 is greater than 10000 nM on Human recombinant MMP-1 (setting [1]); 32 nM on Human recombinant MMP-2 (setting [1]); 1980 nM at Human recombinant MMP-9 (setting [1]); 3 nM at Human recombinant MMP-13 (setting [1]); greater than 10000 nM at Human recombinant MMP-14 (setting [1]).
Turning to `CCCCCc1ccc(-c2nnc(CCCOc3ccc(S(=O)(=O)C4(C(=O)NO)CCOCC4)cc3)o2)cc1` [Example 316], the IC50 is 2680 nM on Human recombinant MMP-1 (setting [1]); 2840 nM on Human recombinant MMP-2 (setting [1]); 692 nM at Human recombinant MMP-9 (setting [1]); 13.6 nM on Human recombinant MMP-13 (setting [1]); greater than 10000 nM on Human recombinant MMP-14 (setting [1]).
As to `Cc1oc(CCCOc2ccc(S(=O)(=O)C3(C(=O)NO)CCOCC3)cc2)nc1-c1ccccc1` [Example 317], the IC50 at Human recombinant MMP-1 (setting [1]) is greater than 10000 nM; on Human recombinant MMP-2 (setting [1]), 120 nM; at Human recombinant MMP-9 (setting [1]), 244 nM; on Human recombinant MMP-13 (setting [1]), 3.1 nM; at Human recombinant MMP-14 (setting [1]), greater than 10000 nM.
On to `O=C(NO)C1(S(=O)(=O)c2ccc(OCCCOc3ccc(C(F)(F)F)cc3)cc2)CCN(C2CC2)CC1` [Example 319], for which the IC50 is greater than 10000 nM on Human recombinant MMP-1 (setting [1]); 5.8 nM at Human recombinant MMP-2 (setting [1]); 258 nM on Human recombinant MMP-9 (setting [1]); 1 nM on Human recombinant MMP-13 (setting [1]); 4220 nM on Human recombinant MMP-14 (setting [1]).
The like results for `O=C(NO)C1(S(=O)(=O)c2ccc(OCCCNc3nc4ccccc4o3)cc2)CCOCC1` [Example 321] were, in that order, greater than 10000 nM, 1700 nM, 626 nM, 3.7 nM and greater than 10000 nM.
The like results for `O=C(CCCCOc1ccc(S(=O)(=O)C2(C(=O)NO)CCOCC2)cc1)c1cccs1` [Example 324] were, in that order, 2990 nM, 4.2 nM, 500 nM, 0.5 nM and 8000 nM.
The corresponding values for `O=C(CCCCOc1ccc(S(=O)(=O)C2(C(=O)NO)CCOCC2)cc1)c1cccc(-c2ccccc2)c1` [Example 325] are greater than 10000 nM, 11 nM, 4040 nM, 0.5 nM and greater than 10000 nM.
Take `O=C(CCCCOc1ccc(S(=O)(=O)C2(C(=O)NO)CCOCC2)cc1)c1ccccc1` [Example 326]: the IC50 on Human recombinant MMP-1 (setting [1]) is greater than 10000 nM; at Human recombinant MMP-2 (setting [1]), 7.4 nM; on Human recombinant MMP-9 (setting [1]) it was 263 nM; on Human recombinant MMP-13 (setting [1]) it was 0.3 nM; at Human recombinant MMP-14 (setting [1]), 8320 nM.
For `CC(C)(C)c1ccc(C(=O)CCCCOc2ccc(S(=O)(=O)C3(C(=O)NO)CCOCC3)cc2)cc1` [Example 327], the 50% inhibitory concentration (IC50) at Human recombinant MMP-1 (setting [1]) was greater than 10000 nM; on Human recombinant MMP-2 (setting [1]), 50.7 nM; on Human recombinant MMP-9 (setting [1]) it was 5280 nM; on Human recombinant MMP-13 (setting [1]), 0.9 nM; at Human recombinant MMP-14 (setting [1]) it was greater than 10000 nM.
On to `CCOc1ccc2nc(SCCOc3ccc(S(=O)(=O)C4(C(=O)NO)CCOCC4)cc3)sc2c1` [Example 330], for which the 50% inhibitory concentration (IC50) on Human recombinant MMP-1 (setting [1]) is greater than 10000 nM; at Human recombinant MMP-2 (setting [1]), 262 nM; on Human recombinant MMP-9 (setting [1]), 216 nM; at Human recombinant MMP-13 (setting [1]), 16 nM; on Human recombinant MMP-14 (setting [1]), 592 nM.

Source of the values: patent US20040024024A1, “Aromatic sulfone hydroxamates and their use as protease inhibitors” (priority 2001, published 2004).
